Assay results from US20230265151A1, “GIP/GLP1 CO-AGONIST COMPOUNDS” (priority 2020, published 2023).
Read-outs that look alike come from different tables or passages of the source. *1 amine or outer side, *2 acyl side, *3 side chain or, on linkers, in order; H or OH if unused. Where a SMILES comes first, the peptide text is derived from it. Side-chain parts run from the residue outwards. [ ]: non-standard residue; d: D form. The star is where a group is joined. αMePhe(2-F) = C[C@](N)(Cc1ccccc1F)C(=O)O; γGlu = O=C(O)[C@H](CCC(=O)[*:2])N[*:1]; C14 diacid = O=C(O)CCCCCCCCCCCCC(=O)*; αMeY = C[C@](N)(Cc1ccc(O)cc1)C(=O)O; αMeL = CC(C)C[C@](C)(N)C(=O)O; Orn = NCCC[C@H](N)C(=O)O; AEEA = NCCOCCOCC(=O)O; Aib = CC(C)(N)C(=O)O

Assays:
Format in all cases: cell-based
[1] = target: T1, hGIPR (Homo sapiens, UniProt P48546); test: Functional cAMP formation (HTRF) in HEK-293 clonal cells expressing hGIPR, 0.1% bovine casein, without or with 1.0% human serum albumin; settings: for EC50: geometric mean
T1 construct: expressed in transfected cells
T1 sequence (P48546 22-466): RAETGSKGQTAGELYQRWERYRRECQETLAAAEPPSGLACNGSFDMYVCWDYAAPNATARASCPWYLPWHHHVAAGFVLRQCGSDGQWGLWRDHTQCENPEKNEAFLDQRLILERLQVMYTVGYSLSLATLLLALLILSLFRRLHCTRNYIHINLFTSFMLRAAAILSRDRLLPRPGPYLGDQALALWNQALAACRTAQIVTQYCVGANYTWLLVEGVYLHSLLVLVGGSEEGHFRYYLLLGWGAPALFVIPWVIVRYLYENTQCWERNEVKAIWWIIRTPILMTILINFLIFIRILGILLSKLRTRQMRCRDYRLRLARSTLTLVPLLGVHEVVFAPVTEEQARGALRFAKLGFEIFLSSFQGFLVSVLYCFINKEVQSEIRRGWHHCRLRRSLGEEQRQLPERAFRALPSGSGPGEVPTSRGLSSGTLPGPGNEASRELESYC
How it was run: (§1)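 Cells were stimulated with peptide for 30 min at 37° C, then lysed in buffer carrying cAMP-d2 and anti-cAMP Eu3+-cryptate for a competitive HTRF read after at least 60 min at room temperature. The 665/620 nm ratio was converted to nM cAMP against a standard curve.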

[2] = target: T2, hGCGR (Homo sapiens, UniProt P47871); test: Functional cAMP formation (HTRF) in HEK-293 clonal cells expressing hGCGR, 0.1% bovine casein, without or with 1.0% human serum albumin
T2 construct: expressed in transfected cells
How it was run: as §1

[3] = target: hGLP-1R (Homo sapiens, UniProt P43220); test: Functional cAMP formation (HTRF) in HEK-293 clonal cells expressing hGLP-1R, 0.1% bovine casein, without or with 1.0% human serum albumin; design: expressed in transfected cells; settings: for Emax: percent of maximal response to GLP-1(7-36)NH2; for EC50: geometric mean
How it was run: as §1

[4] = HEK293, cAMP, 37° C., 0.1% bovine casein, percent of maximal response to GIP(1-42)NH2, arithmetic mean, read-out: hGIPR Emax, % ± SEM
[5] = cAMP, 37° C., 0.1% bovine casein (no human serum albumin), read-out: hGIPR EC50, nM (SEM, n)
[6] = cAMP, 37° C., 0.1% bovine casein (no human serum albumin), geometric mean, read-out: hGCGR EC50, nM (SEM, n)
[7] = cAMP, 37° C., 0.1% bovine casein (no human serum albumin), read-out: hGLP-1R EC50, nM (SEM, n)
[8] = HEK293, read-out: hGIPR Emax, % ± SEM, 0.1% bovine casein and 1.0% human serum albumin, 37° C., percent of maximal response to GIP(1-42)NH2
[9] = hGCGR EC50, nM (SEM, n), 0.1% bovine casein and 1.0% human serum albumin, 37° C., geometric mean
[10] = HEK293, read-out: hGLP-1R Emax, % ± SEM, 0.1% bovine casein and 1.0% human serum albumin, 37° C.

Chain of hGLP-1R (P43220 24-463): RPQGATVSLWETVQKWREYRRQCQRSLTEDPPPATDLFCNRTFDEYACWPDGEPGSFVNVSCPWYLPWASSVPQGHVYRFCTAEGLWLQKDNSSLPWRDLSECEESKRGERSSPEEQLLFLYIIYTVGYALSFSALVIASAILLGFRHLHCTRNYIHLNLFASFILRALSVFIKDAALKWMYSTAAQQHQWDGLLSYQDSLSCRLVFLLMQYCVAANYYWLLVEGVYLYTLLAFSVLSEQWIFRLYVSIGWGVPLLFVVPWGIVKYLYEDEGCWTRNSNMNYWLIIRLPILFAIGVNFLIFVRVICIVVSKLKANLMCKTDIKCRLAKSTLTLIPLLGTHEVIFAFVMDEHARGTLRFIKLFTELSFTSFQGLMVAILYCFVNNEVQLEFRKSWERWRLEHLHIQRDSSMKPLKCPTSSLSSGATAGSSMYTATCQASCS
T2 sequence (P47871 26-477): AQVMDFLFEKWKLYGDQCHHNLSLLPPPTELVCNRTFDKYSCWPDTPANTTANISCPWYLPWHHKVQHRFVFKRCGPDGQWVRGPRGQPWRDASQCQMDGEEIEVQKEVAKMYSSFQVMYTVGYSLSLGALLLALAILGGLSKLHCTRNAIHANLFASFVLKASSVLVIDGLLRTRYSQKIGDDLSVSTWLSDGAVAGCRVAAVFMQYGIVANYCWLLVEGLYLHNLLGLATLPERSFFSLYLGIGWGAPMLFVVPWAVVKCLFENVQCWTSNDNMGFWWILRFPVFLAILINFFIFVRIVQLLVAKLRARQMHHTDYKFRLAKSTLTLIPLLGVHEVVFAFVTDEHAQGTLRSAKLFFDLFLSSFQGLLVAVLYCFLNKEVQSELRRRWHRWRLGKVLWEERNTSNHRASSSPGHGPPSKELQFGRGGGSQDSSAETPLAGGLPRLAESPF

| SMILES | Emax [1, 4] | EC50 [1, 5] | EC50 [2, 6] | EC50 [3, 7] | Emax [1, 8] | EC50 [2, 9] | Emax [3, 10] | other results |
| --- | --- | --- | --- | --- | --- | --- | --- | --- |
| CC[C@H](C)[C@H](NC(=O)[C@H](CCCN)NC(=O)[C@H](CC(=O)O)NC(=O)[C@H](CC(C)C)NC(=O)[C@](C)(CC(C)C)NC(=O)[C@@H](NC(=O)C(C)(C)NC(=O)[C@H](Cc1ccc(O)cc1)NC(=O)[C@H](CC(=O)O)NC(=O)[C@H](CO)NC(=O)[C@@H](NC(=O)[C@](C)(Cc1ccccc1F)NC(=O)[C@@H](NC(=O)CNC(=O)[C@H](CCC(=O)O)NC(=O)C(C)(C)NC(=O)[C@@H](N)Cc1ccc(O)cc1)[C@@H](C)O)[C@@H](C)O)[C@@H](C)CC)C(=O)N[C@@H](C)C(=O)N[C@@H](CCC(N)=O)C(=O)NC(C)(C)C(=O)N[C@@H](CCC(=O)O)C(=O)N[C@@H](Cc1ccccc1)C(=O)N[C@H](C(=O)N[C@@H](CCCCNC(=O)COCCOCCNC(=O)COCCOCCNC(=O)COCCOCCNC(=O)CC[C@H](NC(=O)CCCCCCCCCCCCC(=O)O)C(=O)O)C(=O)N[C@@](C)(Cc1ccc(O)cc1)C(=O)N[C@@H](CC(C)C)C(=O)N[C@H](C(=O)N[C@@H](CCCCNC(=O)COCCOCCNC(=O)COCCOCCNC(=O)COCCOCCNC(=O)CC[C@H](NC(=O)CCCCCCCCCCCCC(=O)O)C(=O)O)C(=O)NCC(=O)NCC(=O)N1CCC[C@H]1C(=O)N[C@@H](CO)C(=O)N[C@@H](CO)C(=O)NCC(=O)N[C@@H](C)C(=O)N1CCC[C@H]1C(=O)N1CCC[C@H]1C(=O)N1CCC[C@H]1C(=O)N[C@@H](CO)C(N)=O)[C@@H](C)CC)[C@@H](C)CC [Example 343] | 98.8% | 0.0111 nM | > 9950 nM | 0.275 nM | – | – | – | Emax ([1]; HEK293, cAMP, 37° C., 0.1% bovine casein and 1.0% human serum albumin, percent of maximal response to GIP(1-42)NH2, read-out: hGIPR Emax, % ± SEM): 90.2%; EC50 ([2]; cAMP, 37° C., 0.1% bovine casein and 1.0% human serum albumin, geometric mean (SEM, n), read-out: hGCGR EC50, nM (SEM, n)): > 9950 nM; Emax ([3]; HEK293, cAMP, 37° C., 0.1% bovine casein and 1.0% human serum albumin, read-out: hGLP-1R Emax, % ± SEM): 98.2% |
| CC[C@H](C)[C@H](NC(=O)[C@H](CCCN)NC(=O)[C@H](CC(=O)O)NC(=O)[C@H](CC(C)C)NC(=O)[C@](C)(CC(C)C)NC(=O)[C@@H](NC(=O)[C@H](CO)NC(=O)[C@H](Cc1ccc2ccccc2c1)NC(=O)[C@H](CC(=O)O)NC(=O)[C@H](CO)NC(=O)[C@@H](NC(=O)[C@](C)(Cc1ccccc1F)NC(=O)[C@@H](NC(=O)CNC(=O)[C@H](CCC(=O)O)NC(=O)C(C)(C)NC(=O)[C@@H](N)Cc1ccc(O)cc1)[C@@H](C)O)[C@@H](C)O)[C@@H](C)CC)C(=O)N[C@@H](C)C(=O)N[C@@H](CCC(N)=O)C(=O)NC(C)(C)C(=O)N[C@@H](CCC(=O)O)C(=O)N[C@@H](Cc1ccccc1)C(=O)N[C@H](C(=O)N[C@@H](CCCCNC(=O)COCCOCCNC(=O)COCCOCCNC(=O)CC[C@H](NC(=O)CCCCCCCCCOc1ccc(C(=O)O)cc1)C(=O)O)C(=O)N[C@@](C)(Cc1ccc(O)cc1)C(=O)N[C@@H](CC(C)C)C(=O)N[C@H](C(=O)N[C@@H](CCCCNC(=O)COCCOCCNC(=O)COCCOCCNC(=O)CC[C@H](NC(=O)CCCCCCCCCOc1ccc(C(=O)O)cc1)C(=O)O)C(=O)NCC(=O)NCC(=O)N1CCC[C@H]1C(=O)N[C@@H](CO)C(=O)N[C@@H](CO)C(=O)NCC(=O)N[C@@H](C)C(=O)N1CCC[C@H]1C(=O)N1CCC[C@H]1C(=O)N1CCC[C@H]1C(=O)N[C@@H](CO)C(N)=O)[C@@H](C)CC)[C@@H](C)CC [Example 283] | – | – | – | – | 114% | > 9950 nM | 96.6% | EC50 ([2]; hGCGR EC50, nM (SEM, n), cAMP, 37° C., 0.1% bovine casein (no human serum albumin), geometric mean): > 9950 nM; EC50 ([3]; hGLP-1R EC50, nM (SEM, n), cAMP, 37° C., 0.1% bovine casein (no human serum albumin)): 1.14 nM |
| CC[C@H](C)[C@H](NC(=O)[C@H](CCCN)NC(=O)[C@H](CC(=O)O)NC(=O)[C@H](CC(C)C)NC(=O)[C@](C)(CC(C)C)NC(=O)[C@@H](NC(=O)[C@H](CO)NC(=O)[C@H](Cc1ccncc1)NC(=O)[C@H](CC(=O)O)NC(=O)[C@H](CO)NC(=O)[C@@H](NC(=O)[C@](C)(Cc1ccccc1F)NC(=O)[C@@H](NC(=O)CNC(=O)[C@H](CCC(=O)O)NC(=O)C(C)(C)NC(=O)[C@@H](N)Cc1ccc(O)cc1)[C@@H](C)O)[C@@H](C)O)[C@@H](C)CC)C(=O)N[C@@H](C)C(=O)N[C@@H](CCC(N)=O)C(=O)NC(C)(C)C(=O)N[C@@H](CCC(=O)O)C(=O)N[C@@H](Cc1ccccc1)C(=O)N[C@H](C(=O)N[C@@H](CCCCNC(=O)COCCOCCNC(=O)COCCOCCNC(=O)CC[C@H](NC(=O)CCCCCCCCCCCCC(=O)O)C(=O)O)C(=O)N[C@@](C)(Cc1ccc(O)cc1)C(=O)N[C@@H](CC(C)C)C(=O)N[C@H](C(=O)N[C@@H](CCC(=O)O)C(=O)NCC(=O)NCC(=O)N1CCC[C@H]1C(=O)N[C@@H](CO)C(=O)N[C@@H](CO)C(=O)NCC(=O)N[C@@H](C)C(=O)N1CCC[C@H]1C(=O)N1CCC[C@H]1C(=O)N1CCC[C@H]1C(=O)N[C@@H](CO)C(=O)N[C@@H](CCCCNC(=O)COCCOCCNC(=O)COCCOCCNC(=O)CC[C@H](NC(=O)CCCCCCCCCCCCC(=O)O)C(=O)O)C(N)=O)[C@@H](C)CC)[C@@H](C)CC [Example 72] | – | – | – | – | 95.9% | > 9950 nM | 98.8% | Emax ([1]; HEK293, read-out: hGIPR Emax, % ± SEM, percent of maximal response to GIP(1-42)NH2, 37° C., 0.1% bovine casein, arithmetic mean): 96.5 ± 3.71%; EC50 ([1]; hGIPR EC50, nM (SEM, n), 0.1% bovine casein and 1.0% human serum albumin, 37° C.): 3.55 nM; EC50 ([2]; hGCGR EC50, nM (SEM, n), cAMP, incubated at 37° C., 0.1% bovine casein (no human serum albumin), geometric mean): > 9950 nM; EC50 ([3]; hGLP-1R EC50, nM (SEM, n), 0.1% bovine casein and 1.0% human serum albumin, 37° C.): 40.1 nM; EC50 ([3]; hGLP-1R EC50, nM (SEM, n), cAMP, incubated at 37° C., 0.1% bovine casein (no human serum albumin)): 0.245 nM |
| CC[C@H](C)[C@H](NC(=O)[C@H](CCCN)NC(=O)[C@H](CC(=O)O)NC(=O)[C@H](CC(C)C)NC(=O)[C@](C)(CC(C)C)NC(=O)[C@@H](NC(=O)[C@H](CO)NC(=O)[C@H](Cc1ccc(OC)cc1)NC(=O)[C@H](CC(=O)O)NC(=O)[C@H](CO)NC(=O)[C@@H](NC(=O)[C@](C)(Cc1ccccc1F)NC(=O)[C@@H](NC(=O)CNC(=O)[C@H](CCC(=O)O)NC(=O)C(C)(C)NC(=O)[C@@H](N)Cc1ccc(O)cc1)[C@@H](C)O)[C@@H](C)O)[C@@H](C)CC)C(=O)N[C@@H](C)C(=O)N[C@@H](CCC(N)=O)C(=O)NC(C)(C)C(=O)N[C@@H](CCCCNC(=O)COCCOCCNC(=O)COCCOCCNC(=O)CC[C@H](NC(=O)CCCCCCCCCCCCC(=O)O)C(=O)O)C(=O)N[C@@H](Cc1ccccc1)C(=O)N[C@H](C(=O)N[C@H](CCC(=O)O)C(=O)N[C@@](C)(Cc1ccc(O)cc1)C(=O)N[C@@H](CC(C)C)C(=O)N[C@H](C(=O)N[C@@H](CCC(=O)O)C(=O)NCC(=O)NCC(=O)N1CCC[C@H]1C(=O)N[C@@H](CO)C(=O)N[C@@H](CO)C(=O)NCC(=O)N[C@@H](C)C(=O)N1CCC[C@H]1C(=O)N1CCC[C@H]1C(=O)N1CCC[C@H]1C(=O)N[C@@H](CO)C(=O)N[C@@H](CCCCNC(=O)COCCOCCNC(=O)COCCOCCNC(=O)CC[C@H](NC(=O)CCCCCCCCCCCCC(=O)O)C(=O)O)C(N)=O)[C@@H](C)CC)[C@@H](C)CC [Example 264] (H-Y[Aib]EGT[αMePhe(2-F)]TSDY(Me)SI[αMeL]LD[Orn]IAQ[Aib]K([AEEA-AEEA-γGlu-C14 diacid])FI[dE][αMeY]LIEGGPSSGAPPPSK([AEEA-AEEA-γGlu-C14 diacid])-NH2) | 114% | 0.0208 nM | > 9950 nM | 0.413 nM | – | – | – | Emax ([1]; HEK293, 0.1% bovine casein and 1.0% human serum albumin, 37° C., percent of maximal response to GIP(1-42)NH2, read-out: hGIPR Emax, % ± SEM): 84.4%; EC50 ([2]; 0.1% bovine casein and 1.0% human serum albumin, 37° C., geometric mean, read-out: hGCGR EC50, nM (SEM, n)): > 9950 nM; Emax ([3]; HEK293, 0.1% bovine casein and 1.0% human serum albumin, 37° C., read-out: hGLP-1R Emax, % ± SEM): 105%; Emax ([3]; HEK293, cAMP, 37° C., 0.1% bovine casein, arithmetic mean, read-out: hGLP-1R Emax, % ± SEM): 113% |
